Measured values: patent US20180000085A1, “USE OF PICOLINAMIDE COMPOUNDS WITH FUNGICIDAL ACTIVITY” (DOW AGROSCIENCES LLC, priority 2014, published 2018)

Key:
Assay type in all cases: in vivo
Phakopsora pachyrhizi = assay: Asian soybean rust (PHAKPA) disease control; design: key: A: > 80; B: ≤ 80; C: Not Tested; D: No Activity Observed in the Reported Assay; conditions: 25 ppm; for PHAKPA disease control, 1DP: 1 Day Protectant; for PHAKPA disease control, 3DC: 3 Day Curative
Puccinia triticina = assay: Wheat brown rust (PUCCRT) disease control on wheat seedlings; conditions: low volume application, 125.1 g/H; for PUCCRT 1DP, LV activity at 125.1 g/H (% Control rating): 1 Day Protectant; for PUCCRT 3DC, LV activity at 125.1 g/H (% Control rating): 3 Day Curative; for PUCCRT 1DP disease control rating, LV activity at 125.1 g/H: 1 day protectant; for PUCCRT 3DC disease control rating, LV activity at 125.1 g/H: 3 day curative
Zymoseptoria tritici = assay: Leaf blotch of wheat (SEPTTR) disease control on wheat seedlings; conditions: low volume application, 125.1 g/H; for SEPTTR 1DP, LV activity at 125.1 g/H (% Control rating): 1 Day Protectant; for SEPTTR 3DC, LV activity at 125.1 g/H (% Control rating): 3 Day Curative; for SEPTTR 1DP disease control rating, LV activity at 125.1 g/H: 1 day protectant; for SEPTTR 3DC disease control rating, LV activity at 125.1 g/H: 3 day curative

Row | Structure (SMILES) | PHAKPA disease control, 1DP (Phakopsora pachyrhizi) | PHAKPA disease control, 3DC (Phakopsora pachyrhizi) | PUCCRT 1DP, LV activity at 125.1 g/H (% Control rating) (Puccinia triticina) | PUCCRT 3DC, LV activity at 125.1 g/H (% Control rating) (Puccinia triticina) | SEPTTR 1DP, LV activity at 125.1 g/H (% Control rating) (Zymoseptoria tritici) | SEPTTR 3DC, LV activity at 125.1 g/H (% Control rating) (Zymoseptoria tritici) | PUCCRT 1DP disease control rating, LV activity at 125.1 g/H (Puccinia triticina) | PUCCRT 3DC disease control rating, LV activity at 125.1 g/H (Puccinia triticina) | SEPTTR 1DP disease control rating, LV activity at 125.1 g/H (Zymoseptoria tritici) | SEPTTR 3DC disease control rating, LV activity at 125.1 g/H (Zymoseptoria tritici)
1 | COc1ccnc(C(=O)N[C@@H](C)C(=O)O[C@@H](C)[C@H](Oc2ccc(F)cc2)C(C)C)c1OC(C)=O [Cmpd 626] | A (> 80) | B (≤ 80) | A (> 80) | A (> 80) | A (> 80) | A (> 80) |  |  |  | 
2 | CCC(CC)[C@@H](Oc1ccccc1Cl)[C@H](C)OC(=O)[C@H](C)NC(=O)c1nccc(OC)c1OCOC(C)=O [Cmpd 593] | A (> 80) | B (≤ 80) | A (> 80) | A (> 80) | A (> 80) | A (> 80) |  |  |  | 
3 | COc1ccnc(C(=O)N[C@@H](C)C(=O)O[C@@H](C)[C@H](Oc2cccc3ccccc23)C(C)C)c1OCOC(C)=O [Cmpd 621] | A (> 80) | D | A (> 80) | A (> 80) | B (≤ 80) | A (> 80) |  |  |  | 
4 | COc1ccnc(C(=O)N[C@@H](C)C(=O)O[C@@H](C)[C@H](Oc2ccc(F)cc2)C2CCCC2)c1OC(C)=O [Cmpd 919] | A (> 80) | D |  |  |  |  | A (> 80) | A (> 80) | A (> 80) | A (> 80)
5 | CCC(CC)[C@H](Oc1ccc(Cl)cc1Cl)[C@H](C)OC(=O)[C@H](C)NC(=O)c1nccc(OC)c1OCOC(C)=O [Cmpd 670] | B (≤ 80) | B (≤ 80) |  |  |  |  | A (> 80) | A (> 80) | A (> 80) | A (> 80)
6 | CCC(CC)[C@@H](Oc1ccccc1Cl)[C@H](C)OC(=O)[C@H](C)NC(=O)c1nccc(OC)c1OC(C)=O [Cmpd 604] | B (≤ 80) | B (≤ 80) | A (> 80) | A (> 80) | B (≤ 80) | A (> 80) |  |  |  | 
7 | COc1ccnc(C(=O)NC(C)C(=O)OC(C)C(Oc2ccc(Cl)cc2)C2CCCC2)c1OCOC(C)=O (stereo not drawn) [Cmpd 912] | B (≤ 80) | B (≤ 80) |  |  |  |  | A (> 80) | A (> 80) | A (> 80) | A (> 80)
8 | CCC(CC)[C@@H](Oc1cc(F)cc(Cl)c1)[C@H](C)OC(=O)[C@H](C)NC(=O)c1nccc(OC)c1OCOC(C)=O [Cmpd 592] | A (> 80) | A (> 80) | A (> 80) | A (> 80) | A (> 80) | A (> 80) |  |  |  | 
